Reference: PubChem BioAssay AID1918938 (Molecular Pharmacology Branch, DTP, NCI, 2023)

System: 556581-035-R-J1-PDC complex spheroid viability
Assay: Anticancer human tumor 556581-035-R-J1-PDC patient-derived ovarian carcinoma cell line growth inhibition
Settings: for IC50: curve of first compound; for viability, T/C: stronger effect = lower value
Summary of the method: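 Drug combinations with the LSD1 inhibitor iadademstat tested on tumor cells co-cultured as spheroids with endothelial cells and mesenchymal stem cells. Concentrations descended in half-log increments from clinical Cmax or 10 microM.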

[1] = second compound 0.1 µM, first compound 0.0316 µM
[2] = second compound 0.1 µM, first compound 0.1 µM
[3] = second compound 0.1 µM, first compound 0.316 µM
[4] = second compound 0.1 µM, first compound 1 µM
[5] = second compound 0.1 µM, first compound 3.16 µM
[6] = second compound 0.1 µM, first compound 10 µM
[7] = second compound 0.316 µM, first compound 0.0316 µM
[8] = second compound 0.316 µM, first compound 0.1 µM
[9] = second compound 0.316 µM, first compound 0.316 µM
[10] = second compound 0.316 µM, first compound 1 µM
[11] = second compound 0.316 µM, first compound 3.16 µM
[12] = second compound 0.316 µM, first compound 10 µM
[13] = second compound 1 µM, first compound 0.0316 µM
[14] = second compound 1 µM, first compound 0.1 µM
[15] = second compound 1 µM, first compound 0.316 µM
[16] = second compound 1 µM, first compound 1 µM
[17] = second compound 1 µM, first compound 3.16 µM
[18] = second compound 1 µM, first compound 10 µM
[19] = second compound 3.16 µM, first compound 0.0316 µM
[20] = second compound 3.16 µM, first compound 0.1 µM
[21] = second compound 3.16 µM, first compound 0.316 µM
[22] = second compound 3.16 µM, first compound 1 µM
[23] = second compound 3.16 µM, first compound 3.16 µM
[24] = second compound 3.16 µM, first compound 10 µM
[25] = second compound 10 µM, first compound 0.0316 µM
[26] = second compound 10 µM, first compound 0.1 µM
[27] = second compound 10 µM, first compound 0.316 µM
[28] = second compound 10 µM, first compound 1 µM
[29] = second compound 10 µM, first compound 3.16 µM
[30] = second compound 10 µM, first compound 10 µM
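Further: spheroids exposed to agents for seven days.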
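Wherever viability, T/C is given: 100% = DMSO vehicle control wells.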

What does the source list for CC(C)c1c(-c2ccccc2)nc2c(C#N)c[nH]n2c1=O + NC1CCC(NC2CC2c2ccccc2)CC1?
IC50 (second compound 0.1 µM): > 10 µM; IC50 (second compound 0.316 µM): > 10 µM; IC50 (second compound 1 µM): > 10 µM; IC50 (second compound 3.16 µM): 8.29 µM; IC50 (second compound 10 µM): 4.84 µM; viability, T/C [1]: 93.2%; viability, T/C [2]: 94.5%; viability, T/C [3]: 90.9%; viability, T/C [4]: 87.9%; viability, T/C [5]: 83%; viability, T/C [6]: 56.5%; viability, T/C [7]: 87%; viability, T/C [8]: 79.1%; viability, T/C [9]: 86.3%; viability, T/C [10]: 78.3%; viability, T/C [11]: 71.4%; viability, T/C [12]: 54.4%; viability, T/C [13]: 72.2%; viability, T/C [14]: 78.2%; viability, T/C [15]: 78%; viability, T/C [16]: 82.3%; viability, T/C [17]: 78.7%; viability, T/C [18]: 53.7%; viability, T/C [19]: 85.4%; viability, T/C [20]: 76.4%; viability, T/C [21]: 77.8%; viability, T/C [22]: 76%; viability, T/C [23]: 68.3%; viability, T/C [24]: 46.2%; viability, T/C [25]: 70%; viability, T/C [26]: 73.8%; viability, T/C [27]: 76%; viability, T/C [28]: 66.8%; viability, T/C [29]: 54%; viability, T/C [30]: 43.7%

With CC1COCCN1c1cc(-c2ccnn2C)c2ccnc(-c3ccn[nH]3)c2n1 (stereo not given) + NC1CCC(NC2CC2c2ccccc2)CC1 as the compound, how does the IC50 (second compound 0.1 µM) read?
Its IC50 is 0.0462 µM.

And the IC50 (second compound 0.316 µM)?
Its IC50 is 0.027 µM.

And the IC50 (second compound 1 µM)?
Its IC50 is 0.025 µM.

What about the IC50 (second compound 3.16 µM) of the same compound?
The IC50 was 0.0216 µM.

And the IC50 (second compound 10 µM)?
Its IC50 is 0.0119 µM.

What about the viability, T/C (second compound 0.1 µM, first compound 0.00316 µM) of the same compound?
Its viability, T/C is 64.5%.

And the viability, T/C (second compound 0.1 µM, first compound 0.01 µM)?
Its viability, T/C is 61.4%.

What about the viability, T/C [1] of the same compound?
The viability, T/C was 55%.

What about the viability, T/C [2] of the same compound?
Its viability, T/C is 38.3%.

What about the viability, T/C [3] of the same compound?
The viability, T/C was 36.1%.

What about the viability, T/C [4] of the same compound?
The viability, T/C was 14.8%.

And the viability, T/C (second compound 0.316 µM, first compound 0.00316 µM)?
The viability, T/C was 72.9%.

And the viability, T/C (second compound 0.316 µM, first compound 0.01 µM)?
Its viability, T/C is 58.8%.

And the viability, T/C [7]?
Its viability, T/C is 46.3%.

What about the viability, T/C [8] of the same compound?
Its viability, T/C is 38.2%.

And the viability, T/C [9]?
Its viability, T/C is 29.8%.

What about the viability, T/C [10] of the same compound?
Its viability, T/C is 15.3%.

What about the viability, T/C (second compound 1 µM, first compound 0.00316 µM) of the same compound?
The viability, T/C was 61.1%.

And the viability, T/C (second compound 1 µM, first compound 0.01 µM)?
Its viability, T/C is 59.7%.

And the viability, T/C [13]?
The viability, T/C was 45.6%.

What about the viability, T/C [14] of the same compound?
Its viability, T/C is 36.8%.

What about the viability, T/C [15] of the same compound?
Its viability, T/C is 36.8%.

What about the viability, T/C [16] of the same compound?
Its viability, T/C is 17.9%.

And the viability, T/C (second compound 3.16 µM, first compound 0.00316 µM)?
Its viability, T/C is 62.5%.

And the viability, T/C (second compound 3.16 µM, first compound 0.01 µM)?
Its viability, T/C is 54.7%.

And the viability, T/C [19]?
Its viability, T/C is 44.3%.

And the viability, T/C [20]?
The viability, T/C was 39.8%.

And the viability, T/C [21]?
The viability, T/C was 35.8%.

And the viability, T/C [22]?
The viability, T/C was 19.2%.

What about the viability, T/C (second compound 10 µM, first compound 0.00316 µM) of the same compound?
The viability, T/C was 50%.

What about the viability, T/C (second compound 10 µM, first compound 0.01 µM) of the same compound?
Its viability, T/C is 55.5%.

And the viability, T/C [25]?
Its viability, T/C is 44.8%.

What about the viability, T/C [26] of the same compound?
Its viability, T/C is 38%.

And the viability, T/C [27]?
Its viability, T/C is 30.5%.

What about the viability, T/C [28] of the same compound?
Its viability, T/C is 17.3%.

How did the IC50 (second compound 0.1 µM) turn out when CC1COCCN1c1cc(C2(S(C)(=N)=O)CC2)nc(-c2ccnc3[nH]ccc23)n1 (stereo not given) + NC1CCC(NC2CC2c2ccccc2)CC1 was run?
Its IC50 is greater than 10 µM.

And the IC50 (second compound 0.316 µM)?
Its IC50 is greater than 10 µM.

What about the IC50 (second compound 1 µM) of the same compound?
The IC50 was greater than 10 µM.

What about the IC50 (second compound 3.16 µM) of the same compound?
The IC50 was greater than 10 µM.

And the IC50 (second compound 10 µM)?
The IC50 was 6.32 µM.

And the viability, T/C [1]?
The viability, T/C was 96.9%.

And the viability, T/C [2]?
Its viability, T/C is 90.1%.

And the viability, T/C [3]?
The viability, T/C was 81.8%.

What about the viability, T/C [4] of the same compound?
Its viability, T/C is 77.5%.

What about the viability, T/C [5] of the same compound?
Its viability, T/C is 71.2%.

And the viability, T/C [6]?
The viability, T/C was 60.3%.

And the viability, T/C [7]?
Its viability, T/C is 87.8%.

And the viability, T/C [8]?
The viability, T/C was 90.2%.

What about the viability, T/C [9] of the same compound?
The viability, T/C was 78.7%.

What about the viability, T/C [10] of the same compound?
The viability, T/C was 70%.

And the viability, T/C [11]?
Its viability, T/C is 55.6%.

What about the viability, T/C [12] of the same compound?
The viability, T/C was 53.9%.

What about the viability, T/C [13] of the same compound?
The viability, T/C was 80%.

What about the viability, T/C [14] of the same compound?
Its viability, T/C is 88.5%.

And the viability, T/C [15]?
The viability, T/C was 73.4%.

What about the viability, T/C [16] of the same compound?
Its viability, T/C is 65.3%.

What about the viability, T/C [17] of the same compound?
Its viability, T/C is 58.1%.

And the viability, T/C [18]?
The viability, T/C was 53.8%.

What about the viability, T/C [19] of the same compound?
Its viability, T/C is 93.5%.

And the viability, T/C [20]?
Its viability, T/C is 77.8%.

And the viability, T/C [21]?
Its viability, T/C is 79.4%.

What about the viability, T/C [22] of the same compound?
Its viability, T/C is 67.2%.

What about the viability, T/C [23] of the same compound?
The viability, T/C was 55.8%.

And the viability, T/C [24]?
Its viability, T/C is 60.5%.

What about the viability, T/C [25] of the same compound?
The viability, T/C was 67.5%.

What about the viability, T/C [26] of the same compound?
The viability, T/C was 73.5%.

What about the viability, T/C [27] of the same compound?
The viability, T/C was 69%.

And the viability, T/C [28]?
The viability, T/C was 66.1%.

And the viability, T/C [29]?
Its viability, T/C is 48%.

What about the viability, T/C [30] of the same compound?
The viability, T/C was 49.3%.
